Laboratory results as given in patent US20120214862A1, “MODULATION OF FACTOR 7 EXPRESSION” (ISIS Pharmaceuticals, Inc., priority 2009, published 2012).
In the oligonucleotide strings, read from the 5' end, every base follows the letter of its sugar. An asterisk marks phosphorothioate; unmarked linkages are phosphodiester. Other units and linkages are bracketed, terminal groups are in braces. A string of capitals states the bases alone. e = 2'-O-(2-methoxyethyl) (MOE); [5mC] = 5-methylcytosine; d = 2'-deoxy (DNA)

System: human Factor 7 mRNA
Test: Antisense inhibition of human Factor 7 mRNA in HepB3 cells, lipofectin, 50 nM, real-time RT-PCR
Type: cell-based
Conditions: for % Inhibition (human Factor 7 mRNA): 50 nM, ~24 h
How it was run: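 4,000 cells/well; ~24 h exposure; RNA isolated; probe set RTS 2927; normalised to RIBOGREEN® total RNA; % inhibition vs untreated.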

[1] = HepB3 cells, gapmers targeted to nucleobases 13760 to 13789 of SEQ ID NO: 1 (Table 10)
[2] = HepB3 cells, lipofectin, 50 nM antisense oligonucleotide, approximately 24 hours, primer probe set RTS 2927, relative to untreated control
[3] = HepB3 cells, gapmers targeted to nucleobases 11830 to 11869 of SEQ ID NO: 1 (Table 9)
[4] = Example 4, HepB3 cells, lipofectin, relative to untreated control
[5] = Example 1, HepB3 cells, lipofectin, relative to untreated control cells
[6] = HepB3 cells, gapmers (5-10-5, 3-14-3, 2-13-5 MOE) targeted to nucleobases 4868 to 4899 of SEQ ID NO: 1
[7] = HepB3 cells, gapmers targeted to nucleobases 15188 to 15211 of SEQ ID NO: 1 (Table 13)

With “422179 (antisense e[5mC]*eA*e[5mC]*d[5mC]*d[5mC]*dG*d[5mC]*d[5mC]*dG*dG*d[5mC]*dT*d[5mC]*dT*dG*d[5mC]*dT*e[5mC]*eA*eT) [compound 422179]” the “% Inhibition of human Factor 7 mRNA levels” value [1] was 43%.
For “422111 (antisense e[5mC]*eA*e[5mC]*e[5mC]*e[5mC]*dG*d[5mC]*d[5mC]*dG*dG*d[5mC]*dT*d[5mC]*dT*dG*e[5mC]*eT*e[5mC]*eA*eT) [compound 422111]”, the “% Inhibition of human Factor 7 mRNA levels” value [1] was 37%.
In the case of “416520 (antisense e[5mC]*e[5mC]*e[5mC]*eT*e[5mC]*dT*dG*d[5mC]*dA*dA*dA*dT*dA*dT*dG*eG*eG*eA*e[5mC]*e[5mC]) [compound 416520]”, the “% Inhibition of human Factor 7 mRNA levels” value [2] is reported as 14%.
With “422250 (antisense e[5mC]*eT*dG*dG*d[5mC]*dT*dG*dA*dG*dG*dA*dG*dA*d[5mC]*dA*eA*eT*eG*eG*eT) [compound 422250]” the “% Inhibition of human Factor 7 mRNA levels” value [3] was 54%.
“422168 (antisense eT*eG*eA*dG*dG*dA*dG*dA*d[5mC]*dA*dA*dT*dG*dG*dT*d[5mC]*dA*eG*eG*eG) [compound 422168]” was tested, and the “% Inhibition of human Factor 7 mRNA levels” value [3] was 30%.
In the case of “416479 (antisense eG*eA*e[5mC]*eA*eG*d[5mC]*dA*d[5mC]*dA*d[5mC]*dA*dT*dG*dG*dA*eG*eT*e[5mC]*eA*eG) [compound 416479]”, the “% Inhibition (human Factor 7 mRNA)” value (Example 6 microwalk, nucleobases 15098 to 15122 of SEQ ID NO: 1, HepB3, lipofectin) is reported as 47% and the “% Inhibition of human Factor 7 mRNA levels” value [2] is reported as 56%.
With “422112 (antisense e[5mC]*e[5mC]*eA*e[5mC]*e[5mC]*d[5mC]*dG*d[5mC]*d[5mC]*dG*dG*d[5mC]*dT*d[5mC]*dT*eG*e[5mC]*eT*e[5mC]*eA) [compound 422112]” the “% Inhibition of human Factor 7 mRNA levels” value [1] was 61%.
With “422191 (antisense eA*eG*e[5mC]*dG*d[5mC]*dG*dG*dA*dA*dG*dA*dA*dG*dG*dG*dA*d[5mC]*eG*eG*eA) [compound 422191]” the “% Inhibition (human Factor 7 mRNA)” value [4] was 27%.
In the case of “422260 (antisense eG*e[5mC]*dG*d[5mC]*d[5mC]*dA*d[5mC]*d[5mC]*d[5mC]*dG*d[5mC]*d[5mC]*dG*dG*d[5mC]*eT*e[5mC]*eT*eG*e[5mC]) [compound 422260]”, the “% Inhibition of human Factor 7 mRNA levels” value [1] is reported as 56%.
“422157 (antisense eT*eG*eG*dT*d[5mC]*dA*dG*dG*dG*d[5mC]*dT*dG*dG*dT*dT*dT*dT*eG*eG*eA) [compound 422157]” was tested, and the “% Inhibition of human Factor 7 mRNA levels” value [3] was 49%.
“407635 (antisense eT*eG*eG*e[5mC]*e[5mC]*d[5mC]*d[5mC]*dA*dG*d[5mC]*dT*dG*dA*d[5mC]*dG*eA*eT*eG*e[5mC]*e[5mC]) [compound 407635]” was tested, and the “% Inhibition (human Factor 7 mRNA)” value [5] was 64%.
With “422223 (antisense eG*eA*eG*d[5mC]*d[5mC]*d[5mC]*dG*dA*dG*dT*dT*d[5mC]*dT*dG*d[5mC]*dA*dG*eG*eA*eG) [compound 422223]” the “% Inhibition of human Factor 7 mRNA levels” value [6] was 48%.
In the case of “407931 (antisense e[5mC]*eT*eT*e[5mC]*eA*dG*dA*dG*dG*dA*d[5mC]*dA*dG*d[5mC]*dA*e[5mC]*eA*e[5mC]*eA*eT) [compound 407931]”, the “% Inhibition (human Factor 7 mRNA)” value [5] is reported as 56%.
“422108 (antisense e[5mC]*e[5mC]*eG*e[5mC]*e[5mC]*dG*dG*d[5mC]*dT*d[5mC]*dT*dG*d[5mC]*dT*d[5mC]*eA*eT*e[5mC]*e[5mC]*e[5mC]) [compound 422108]” was tested, and the “% Inhibition of human Factor 7 mRNA levels” value [1] was 69%.
For “416511 (antisense eT*eT*eG*e[5mC]*eT*dG*dG*dG*dA*dG*dG*dA*d[5mC]*dG*dA*eG*eG*e[5mC]*e[5mC]*eT) [compound 416511]”, the “% Inhibition of human Factor 7 mRNA levels” value [2] was 35%.
In the case of “422282 (antisense eA*eG*d[5mC]*dA*dG*d[5mC]*d[5mC]*dT*dG*dA*dG*dG*d[5mC]*d[5mC]*dA*eG*e[5mC]*eA*eG*eA) [compound 422282]”, the “% Inhibition of human Factor 7 mRNA levels” value (HepB3 cells, gapmers targeted to nucleobases 14707 to 14732 of SEQ ID NO: 1 (Table 11)) is reported as 48%.
For “422160 (antisense e[5mC]*eA*eA*dT*dG*dG*dT*d[5mC]*dA*dG*dG*dG*d[5mC]*dT*dG*dG*dT*eT*eT*eT) [compound 422160]”, the “% Inhibition of human Factor 7 mRNA levels” value [3] was 42%.
“422085 (antisense eG*e[5mC]*eA*eT*eG*dG*dT*dG*dA*dT*dG*d[5mC]*dT*dT*d[5mC]*eT*eG*eA*eA*eT) [compound 422085]” was tested, and the “% Inhibition of human Factor 7 mRNA levels” value [7] was 70%.
With “422227 (antisense eG*e[5mC]*dA*dT*dG*dG*dT*dG*dA*dT*dG*d[5mC]*dT*dT*d[5mC]*eT*eG*eA*eA*eT) [compound 422227]” the “% Inhibition of human Factor 7 mRNA levels” value [7] was 67%.
With “422195 (antisense eA*e[5mC]*eT*dG*dA*dG*d[5mC]*dG*d[5mC]*dG*dG*dA*dA*dG*dA*dA*dG*eG*eG*eA) [compound 422195]” the “% Inhibition (human Factor 7 mRNA)” value [4] was 37%.
For “422188 (antisense eG*e[5mC]*eG*dG*dA*dA*dG*dA*dA*dG*dG*dG*dA*d[5mC]*dG*dG*dA*eA*eG*eG) [compound 422188]”, the “% Inhibition (human Factor 7 mRNA)” value [4] was 37%.
“422194 (antisense e[5mC]*eT*eG*dA*dG*d[5mC]*dG*d[5mC]*dG*dG*dA*dA*dG*dA*dA*dG*dG*eG*eA*e[5mC]) [compound 422194]” was tested, and the “% Inhibition (human Factor 7 mRNA)” value [4] was 11%.
With “422221 (antisense eG*e[5mC]*e[5mC]*d[5mC]*dG*dA*dG*dT*dT*d[5mC]*dT*dG*d[5mC]*dA*dG*dG*dA*eG*e[5mC]*eG) [compound 422221]” the “% Inhibition of human Factor 7 mRNA levels” value [6] was 59%.
In the case of “407925 (antisense eG*eA*eA*eT*eA*dT*dA*dT*dG*dG*dG*dA*dT*dT*dT*eG*eG*eT*eG*e[5mC]) [compound 407925]”, the “% Inhibition (human Factor 7 mRNA)” value [5] is reported as 64%.
“416452 (antisense e[5mC]*e[5mC]*eA*eA*e[5mC]*dA*dA*d[5mC]*dA*dG*dG*dA*d[5mC]*d[5mC]*dT*eG*e[5mC]*e[5mC]*eA*eT) [compound 416452]” was tested, and the “% Inhibition of human Factor 7 mRNA levels” value [2] was 19%.
“422272 (antisense eA*e[5mC]*dT*dG*dA*dG*d[5mC]*dG*d[5mC]*dG*dG*dA*dA*dG*dA*eA*eG*eG*eG*eA) [compound 422272]” was tested, and the “% Inhibition (human Factor 7 mRNA)” value [4] was 12%.
In the case of “422276 (antisense eG*eG*dT*dT*dA*d[5mC]*dT*dG*dA*dG*d[5mC]*dG*d[5mC]*dG*dG*eA*eA*eG*eA*eA) [compound 422276]”, the “% Inhibition (human Factor 7 mRNA)” value [4] is reported as 66%.
With “422293 (antisense eA*eG*dT*dT*d[5mC]*dT*dG*d[5mC]*dA*dG*dG*dA*dG*d[5mC]*dG*eG*e[5mC]*e[5mC]*eT*eA) [compound 422293]” the “% Inhibition of human Factor 7 mRNA levels” value [6] was 69%.
For “407633 (antisense eG*e[5mC]*eA*eG*eG*d[5mC]*dA*dG*dT*d[5mC]*d[5mC]*dT*dG*dG*dG*eT*e[5mC]*eA*eT*e[5mC]) [compound 407633]”, the “% Inhibition (human Factor 7 mRNA)” value [5] was 71%.
With “416561 (antisense eG*eG*eT*eG*eT*dG*dT*dT*d[5mC]*d[5mC]*d[5mC]*dA*dT*dA*dA*eA*eA*e[5mC]*eT*eT) [compound 416561]” the “% Inhibition of human Factor 7 mRNA levels” value [2] was 16%.
In the case of “422098 (antisense eG*eG*eA*eG*eA*d[5mC]*dA*dA*dT*dG*dG*dT*d[5mC]*dA*dG*eG*eG*e[5mC]*eT*eG) [compound 422098]”, the “% Inhibition of human Factor 7 mRNA levels” value [3] is reported as 53%.
In the case of “407663 (antisense eT*eT*eG*e[5mC]*eA*dG*dG*d[5mC]*dA*dG*dG*dA*d[5mC]*dT*dG*eG*eT*eG*eG*eT) [compound 407663]”, the “% Inhibition (human Factor 7 mRNA)” value [5] is reported as 44%.
For “416512 (antisense eG*eA*e[5mC]*eG*eA*d[5mC]*d[5mC]*dT*dT*dT*dG*d[5mC]*dT*dG*dG*eG*eA*eG*eG*eA) [compound 416512]”, the “% Inhibition of human Factor 7 mRNA levels” value [2] was 43%.
In the case of “416427 (antisense e[5mC]*e[5mC]*e[5mC]*eT*eG*dA*dA*dG*d[5mC]*d[5mC]*d[5mC]*dA*dA*dG*d[5mC]*eA*eG*eA*eA*eG) [compound 416427]”, the “% Inhibition of human Factor 7 mRNA levels” value [2] is reported as 5%.
“422090 (antisense eG*eG*eT*e[5mC]*eA*dG*dG*dG*d[5mC]*dT*dG*dG*dT*dT*dT*eT*eG*eG*eA*eG) [compound 422090]” was tested, and the “% Inhibition of human Factor 7 mRNA levels” value [3] was 42%.
For “422230 (antisense e[5mC]*eA*dT*dG*d[5mC]*dA*dT*dG*dG*dT*dG*dA*dT*dG*d[5mC]*eT*eT*e[5mC]*eT*eG) [compound 422230]”, the “% Inhibition of human Factor 7 mRNA levels” value [7] was 65%.
With “422161 (antisense eA*e[5mC]*eA*dA*dT*dG*dG*dT*d[5mC]*dA*dG*dG*dG*d[5mC]*dT*dG*dG*eT*eT*eT) [compound 422161]” the “% Inhibition of human Factor 7 mRNA levels” value [3] was 53%.
“407963 (antisense eA*eG*eA*eG*e[5mC]*dA*dG*dG*dG*dT*dG*d[5mC]*d[5mC]*dT*dT*eG*eG*eA*eA*eG) [compound 407963]” was tested, and the “% Inhibition (human Factor 7 mRNA)” value [5] was 33%.
For “416499 (antisense eG*eA*eG*eA*eG*d[5mC]*dT*dG*d[5mC]*dA*d[5mC]*d[5mC]*dT*dG*dG*e[5mC]*e[5mC]*eG*eG*e[5mC]) [compound 416499]”, the “% Inhibition of human Factor 7 mRNA levels” value [2] was 7%.
In the case of “416485 (antisense eG*eA*eG*e[5mC]*eT*dA*d[5mC]*dA*dG*d[5mC]*d[5mC]*dT*d[5mC]*dA*dA*eA*e[5mC]*eA*eT*e[5mC]) [compound 416485]”, the “% Inhibition of human Factor 7 mRNA levels” value [2] is reported as 7%.
“422290 (antisense eT*e[5mC]*dT*dG*d[5mC]*dA*dG*dG*dA*dG*d[5mC]*dG*dG*d[5mC]*d[5mC]*eT*eA*eA*eA*eT) [compound 422290]” was tested, and the “% Inhibition of human Factor 7 mRNA levels” value [6] was 50%.
“422171 (antisense eG*eG*e[5mC]*dT*dG*dA*dG*dG*dA*dG*dA*d[5mC]*dA*dA*dT*dG*dG*eT*e[5mC]*eA) [compound 422171]” was tested, and the “% Inhibition of human Factor 7 mRNA levels” value [3] was 61%.
In the case of “422113 (antisense eG*e[5mC]*e[5mC]*eA*e[5mC]*d[5mC]*d[5mC]*dG*d[5mC]*d[5mC]*dG*dG*d[5mC]*dT*d[5mC]*eT*eG*e[5mC]*eT*e[5mC]) [compound 422113]”, the “% Inhibition of human Factor 7 mRNA levels” value [1] is reported as 68%.
